{"source": "paper PMC11062922", "about": "(Nature Chemical Biology, 2023)", "key": {"DYRK1A": {"biological_target": "T1, DYRK1A (Homo sapiens, UniProt Q13627)", "T1 construct": "endogenous in cells", "experiment": "Kinobeads two-dose competition binding: DYRK1A", "conditions": "read-out: Lestaurtinib Drugmatrix value, Gene Name DYRK1A, target DYRK1A; each column = one Lestaurtinib control replicate (batch_R1-R3)"}, "EPHA5": {"biological_target": "T2, EPHA5 (Homo sapiens, UniProt P54756)", "T2 construct": "endogenous in cells", "experiment": "Kinobeads two-dose competition binding: EPHA5", "conditions": "read-out: Lestaurtinib Drugmatrix value, Gene Name EPHA5"}, "EPHB1": {"biological_target": "T3, EPHB1 (Homo sapiens, UniProt P54762)", "T3 construct": "endogenous in cells", "T3 sequence (P54762 18-984)": "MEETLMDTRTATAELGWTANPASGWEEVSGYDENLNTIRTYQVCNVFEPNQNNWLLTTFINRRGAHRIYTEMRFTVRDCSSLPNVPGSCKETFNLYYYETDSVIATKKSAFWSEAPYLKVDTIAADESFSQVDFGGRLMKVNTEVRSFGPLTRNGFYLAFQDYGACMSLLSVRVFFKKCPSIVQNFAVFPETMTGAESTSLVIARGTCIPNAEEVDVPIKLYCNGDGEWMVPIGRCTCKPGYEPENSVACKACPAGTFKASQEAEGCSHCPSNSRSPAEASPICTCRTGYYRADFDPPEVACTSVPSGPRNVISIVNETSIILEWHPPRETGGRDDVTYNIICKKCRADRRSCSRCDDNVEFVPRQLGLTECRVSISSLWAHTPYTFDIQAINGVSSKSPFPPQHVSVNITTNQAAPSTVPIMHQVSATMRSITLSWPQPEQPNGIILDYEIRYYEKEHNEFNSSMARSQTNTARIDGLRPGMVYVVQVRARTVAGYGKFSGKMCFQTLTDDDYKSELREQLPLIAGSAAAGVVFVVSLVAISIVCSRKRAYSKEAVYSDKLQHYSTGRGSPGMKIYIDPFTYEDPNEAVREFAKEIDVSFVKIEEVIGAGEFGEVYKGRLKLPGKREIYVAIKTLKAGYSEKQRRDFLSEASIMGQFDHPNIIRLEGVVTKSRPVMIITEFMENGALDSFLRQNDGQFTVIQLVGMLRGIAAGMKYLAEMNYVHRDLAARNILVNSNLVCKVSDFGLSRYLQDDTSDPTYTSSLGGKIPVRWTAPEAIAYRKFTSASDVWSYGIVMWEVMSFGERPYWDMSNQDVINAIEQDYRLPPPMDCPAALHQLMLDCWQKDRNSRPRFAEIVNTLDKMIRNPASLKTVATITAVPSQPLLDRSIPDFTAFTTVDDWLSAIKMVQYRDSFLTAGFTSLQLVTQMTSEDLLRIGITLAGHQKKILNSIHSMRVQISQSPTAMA", "experiment": "Kinobeads two-dose competition binding: EPHB1", "conditions": "read-out: Lestaurtinib Drugmatrix value, Gene Name EPHB1; target EPHB1; each column = one Lestaurtinib control replicate (batch_R1-R3)"}, "EPHB3": {"biological_target": "T4, EPHB3 (Homo sapiens, UniProt P54753)", "T4 construct": "endogenous in cells", "T4 sequence (P54753 34-998)": "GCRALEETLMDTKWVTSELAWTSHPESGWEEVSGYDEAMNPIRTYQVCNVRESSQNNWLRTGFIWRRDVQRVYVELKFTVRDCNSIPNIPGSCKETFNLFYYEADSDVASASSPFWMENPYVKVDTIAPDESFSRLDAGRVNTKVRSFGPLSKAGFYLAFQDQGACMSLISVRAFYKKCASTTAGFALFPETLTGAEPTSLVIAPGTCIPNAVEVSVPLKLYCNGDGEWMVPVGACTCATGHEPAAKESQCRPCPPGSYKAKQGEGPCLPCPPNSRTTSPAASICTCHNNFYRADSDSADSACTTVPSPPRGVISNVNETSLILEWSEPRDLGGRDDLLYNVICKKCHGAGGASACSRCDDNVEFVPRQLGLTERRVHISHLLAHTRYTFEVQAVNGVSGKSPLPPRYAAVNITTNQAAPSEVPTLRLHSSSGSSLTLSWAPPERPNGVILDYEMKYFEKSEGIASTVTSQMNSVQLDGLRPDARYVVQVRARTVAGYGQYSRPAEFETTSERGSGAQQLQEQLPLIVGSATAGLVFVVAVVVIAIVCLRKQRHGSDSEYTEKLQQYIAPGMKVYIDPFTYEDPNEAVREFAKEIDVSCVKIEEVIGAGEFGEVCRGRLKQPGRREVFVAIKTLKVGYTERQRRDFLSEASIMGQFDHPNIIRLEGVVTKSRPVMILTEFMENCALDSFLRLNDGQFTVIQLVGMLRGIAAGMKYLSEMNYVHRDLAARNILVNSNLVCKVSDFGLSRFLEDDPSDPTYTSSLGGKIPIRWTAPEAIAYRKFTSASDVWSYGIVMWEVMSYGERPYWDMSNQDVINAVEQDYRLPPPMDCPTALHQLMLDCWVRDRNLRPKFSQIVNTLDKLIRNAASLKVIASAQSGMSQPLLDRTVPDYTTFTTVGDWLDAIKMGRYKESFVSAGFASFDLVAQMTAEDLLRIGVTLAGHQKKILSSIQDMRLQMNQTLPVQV", "experiment": "Kinobeads two-dose competition binding: EPHB3", "conditions": "read-out: Lestaurtinib Drugmatrix value, Gene Name EPHB3"}, "ERN2": {"biological_target": "T5, ERN2 (Homo sapiens, UniProt Q76MJ5)", "T5 construct": "endogenous in cells", "experiment": "Kinobeads two-dose competition binding: ERN2", "conditions": "read-out: Lestaurtinib Drugmatrix value, Gene Name ERN2"}, "NTRK1": {"biological_target": "T6, NTRK1 (Homo sapiens, UniProt P04629)", "T6 construct": "endogenous in cells", "experiment": "Kinobeads competition binding, Lestaurtinib control replicates: NTRK1", "conditions": "read-out: Lestaurtinib Drugmatrix value, NTRK1; Gene Name NTRK1; one column per experiment number and replicate (R1-R3)"}, "PIM1": {"biological_target": "T7, PIM1 (Homo sapiens, UniProt P11309)", "T7 construct": "a mixture of lysates from five cancer cell lines; endogenous in cells", "experiment": "Kinobeads competition binding, Lestaurtinib control replicates: PIM1", "conditions": "read-out: Lestaurtinib Drugmatrix value; Gene Name PIM1; one column per experiment number and replicate (R1-R3)"}, "PIM3": {"biological_target": "T8, PIM3 (Homo sapiens, UniProt Q86V86)", "T8 construct": "a mixture of lysates from five cancer cell lines; endogenous in cells", "experiment": "Kinobeads competition binding, Lestaurtinib control replicates: PIM3"}, "ERBB2": {"system": "ERBB2", "conditions": "ERBB2 (2nd target, 2nd value); ref chemicalprobes.org; cited from earlier work"}, "CIT": {"biological_target": "T9, CIT (Homo sapiens, UniProt O14578)", "T9 construct": "endogenous in cells", "experiment": "Kinobeads full dose-response competition binding: CIT", "conditions": "Gene Name CIT"}}, "note": "Several values for one entry are separate records, joined by “and”; a condition that tells them apart may be missing. Equal values may be shown once. Read-outs that look alike come from different tables or passages of the source.", "data": [{"molecule": "C[C@]12O[C@H](C[C@]1(O)CO)n1c3ccccc3c3c4c(c5c6ccccc6n2c5c31)CNC4=O", "note": "[Lestaurtinib]", "values": [{"measurement": "potency estimated from few doses", "setting": "DYRK1A", "result": 820, "unit": "nM"}, {"measurement": "potency estimated from few doses", "setting": "EPHA5", "result": 255, "unit": "nM"}, {"measurement": "potency estimated from few doses", "setting": "EPHB1", "result": 403, "unit": "nM"}, {"measurement": "potency estimated from few doses", "setting": "EPHB3", "result": 780, "unit": "nM"}, {"measurement": "potency estimated from few doses", "setting": "ERN2", "result": 346, "unit": "nM"}, {"measurement": "potency estimated from few doses", "setting": "NTRK1", "result": 772, "unit": "nM"}, {"measurement": "potency estimated from few doses", "setting": "PIM1", "result": 860, "unit": "nM"}, {"measurement": "potency estimated from few doses", "setting": "PIM3; read-out: Lestaurtinib Drugmatrix value, PIM3, Gene Name PIM3; one column per experiment number and replicate (R1-R3)", "result": 611, "unit": "nM"}, {"measurement": "potency estimated from few doses", "setting": "PIM3; read-out: Lestaurtinib Drugmatrix value, PIM3; Gene Name PIM3; one column per experiment number and replicate (R1-R3)", "result": "656 nM and 795 nM"}]}, {"molecule": "CN(C)C/C=C/C(=O)Nc1cc2c(Nc3ccc(F)c(Cl)c3)ncnc2cc1O[C@H]1CCOC1", "note": "[Afatinib]", "values": [{"measurement": "Potency value", "setting": "ERBB2", "result": "0.5 nM, 14 nM"}]}, {"molecule": "CCn1c(-c2nonc2N)nc2c(C#CC(C)(C)O)nc(OCCN)cc21", "note": "[GSK902056A]", "values": [{"measurement": "Relative Intensity 0.3nM", "setting": "CIT; 0.3nM compound, DMSO = 1", "result": 1.0296}, {"measurement": "Relative Intensity 1nM", "setting": "CIT; 1nM compound, DMSO = 1", "result": 1.0023}, {"measurement": "Relative Intensity 3nM", "setting": "CIT; 3nM compound, DMSO = 1", "result": 1.019}, {"measurement": "Relative Intensity 10nM", "setting": "CIT; 10nM compound, DMSO = 1", "result": 1.082}, {"measurement": "Relative Intensity 30nM", "setting": "CIT; 30nM compound, DMSO = 1", "result": 1.01}, {"measurement": "Relative Intensity 100nM", "setting": "CIT; 100nM compound, DMSO = 1", "result": 0.9604}, {"measurement": "Relative Intensity 300nM", "setting": "CIT; 300nM compound, DMSO = 1", "result": 0.7575}, {"measurement": "Relative Intensity 1000nM", "setting": "CIT; 1000nM compound, DMSO = 1", "result": 0.5648}, {"measurement": "Kd", "setting": "CIT; EC50 with Correction, doses in nM, read-out: apparent Kd", "result": 279, "unit": "nM"}, {"measurement": "EC50", "setting": "CIT; eight-dose curve fit, doses in nM", "result": 279, "unit": "nM"}]}]}
